The text below walks through data of patent US8178678B2, “Bis-quaternary ammonium salts and methods for modulating neuronal nicotinic acetylcholine receptors” (University of Kentucky Research Foundation, priority 2006, dated 2012).

Assay [1] deals with T1, Rat Striatal Nicotinic Receptors ([^3H]MLA binding sites; α7) (Rattus norvegicus, UniProt Q05941).
T1 construct: Whole brain, excluding cortex and cerebellum, was homogenized in 20 vol of ice-cold buffer; from tissue; host or cells: rat brain membranes (whole brain excluding cortex and cerebellum)
In words: Inhibition of [^3H]MLA (methyllycaconitine) binding. The note with it: 100 nM analog; [^3H]MLA; nonspecific S-nicotine; rat brain membranes; read-out: [^3H]MLA binding, % inhibition. On the procedure:
Homogenate was centrifuged (25,000 g, 15 min, 4° C). Pellets were resuspended in 20 vol buffer and incubated at 37° C., for 10 min, cooled to 4° C. and centrifuged (25,000 g, 15 min, 4° C.). Pellets were resuspended and centrifuged using the same conditions. […] Upon use, final pellets were resuspended in 20 vol assay buffer. Samples (250 μl) contained 100-140 μg of membrane protein, 3 nM [^3H]-S-nicotine or 3 nM [^3H]-methyllycaconitine (MLA), and bis-quaternary ammonium analog (100 nM) in assay buffer containing 50 mM Tris. Control was in the absence of analog. In [^3H]-S-nicotine and [^3H]-methyllycaconitine binding assays, nonspecific binding was determined in the presence of 10 μM cytisine and 10 μM S-nicotine, respectively. Incubations proceeded for 60 min at room temperature using 96-well plates and were terminated by harvesting on Unifilter-96 GF/B filter plates presoaked in 0.5% polyethylenimine, using a Packard FilterMate harvester. After washing 5 times with 350 μl ice-cold assay buffer, filter plates were dried (60 min, 4° C.), bottom-sealed, and filled with Packard's MicroScint 20 cocktail (40 μl/well). After 60 min, filter plates were top-sealed, and radioactivity determined using a Packard TopCount. Protein concentrations were determined using the Bradford dye-binding procedure bovine serum albumin as the standard. […]

Assay [2] has as its target T2, Rat Striatal Nicotinic Receptors ([^3H]NIC binding sites; α4β2) (Rattus norvegicus, UniProt P09483+P12390).
T2 construct: Whole brain, excluding cortex and cerebellum, was homogenized in 20 vol of ice-cold buffer; from tissue; host or cells: rat brain membranes (whole brain excluding cortex and cerebellum)
Briefly: Inhibition of [^3H]NIC binding. The conditions noted are these: 1 h; 100 nM analog; 3 nM [^3H]NIC; nonspecific 10 μM cytisine; rat brain membranes. The method, then:
Homogenate was centrifuged (25,000 g, 15 min, 4° C). Pellets were resuspended in 20 vol buffer and incubated at 37° C., for 10 min, cooled to 4° C. and centrifuged (25,000 g, 15 min, 4° C.). Pellets were resuspended and centrifuged using the same conditions. […] Upon use, final pellets were resuspended in 20 vol assay buffer. Samples (250 μl) contained 100-140 μg of membrane protein, 3 nM [^3H]-S-nicotine or 3 nM [^3H]-methyllycaconitine (MLA), and bis-quaternary ammonium analog (100 nM) in assay buffer containing 50 mM Tris. Control was in the absence of analog. In [^3H]-S-nicotine and [^3H]-methyllycaconitine binding assays, nonspecific binding was determined in the presence of 10 μM cytisine and 10 μM S-nicotine, respectively. Incubations proceeded for 60 min at room temperature using 96-well plates and were terminated by harvesting on Unifilter-96 GF/B filter plates presoaked in 0.5% polyethylenimine, using a Packard FilterMate harvester. After washing 5 times with 350 μl ice-cold assay buffer, filter plates were dried (60 min, 4° C.), bottom-sealed, and filled with Packard's MicroScint 20 cocktail (40 μl/well). After 60 min, filter plates were top-sealed, and radioactivity determined using a Packard TopCount. Protein concentrations were determined using the Bradford dye-binding procedure bovine serum albumin as the standard.
Specific binding in the [^3H]NIC binding assay is calculated as the difference between the total binding of 3 nM [^3H]NIC and nonspecific binding in the presence of 10 μM cold cytisine. […] Analog-induced inhibition of S-nicotine-evoked [^3H]DA release is calculated as a percent of that in the absence of the bis-quaternary ammonium analog.

T1 sequence (Q05941 23-502): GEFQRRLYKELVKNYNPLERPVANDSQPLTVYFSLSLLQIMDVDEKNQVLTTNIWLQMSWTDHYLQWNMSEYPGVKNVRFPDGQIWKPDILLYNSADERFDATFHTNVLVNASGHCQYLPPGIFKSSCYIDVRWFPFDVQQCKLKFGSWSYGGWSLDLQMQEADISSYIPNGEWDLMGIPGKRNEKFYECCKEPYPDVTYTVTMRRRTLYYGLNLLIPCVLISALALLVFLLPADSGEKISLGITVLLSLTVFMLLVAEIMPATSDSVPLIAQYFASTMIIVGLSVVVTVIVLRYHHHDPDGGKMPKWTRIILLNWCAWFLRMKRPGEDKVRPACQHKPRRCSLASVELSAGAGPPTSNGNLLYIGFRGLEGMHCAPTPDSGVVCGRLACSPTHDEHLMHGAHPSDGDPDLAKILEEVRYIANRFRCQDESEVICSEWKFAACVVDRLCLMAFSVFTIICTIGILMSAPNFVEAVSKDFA
T2 sequence (P09483 31-630): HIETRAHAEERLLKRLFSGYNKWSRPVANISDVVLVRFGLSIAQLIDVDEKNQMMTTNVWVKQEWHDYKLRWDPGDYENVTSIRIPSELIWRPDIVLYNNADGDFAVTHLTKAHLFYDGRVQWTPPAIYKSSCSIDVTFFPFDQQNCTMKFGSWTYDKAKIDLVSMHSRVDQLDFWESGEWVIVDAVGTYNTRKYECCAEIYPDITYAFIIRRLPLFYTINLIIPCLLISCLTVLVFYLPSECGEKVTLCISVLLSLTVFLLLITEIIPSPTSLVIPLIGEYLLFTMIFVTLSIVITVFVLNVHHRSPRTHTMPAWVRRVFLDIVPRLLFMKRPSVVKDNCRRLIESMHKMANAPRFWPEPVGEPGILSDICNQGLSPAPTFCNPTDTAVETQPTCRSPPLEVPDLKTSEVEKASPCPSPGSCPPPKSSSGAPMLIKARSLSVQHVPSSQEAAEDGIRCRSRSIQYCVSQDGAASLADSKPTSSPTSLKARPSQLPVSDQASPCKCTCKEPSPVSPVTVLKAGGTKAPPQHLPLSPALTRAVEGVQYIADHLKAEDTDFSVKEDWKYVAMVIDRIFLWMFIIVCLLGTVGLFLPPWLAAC
T2 sequence (P12390 25-500): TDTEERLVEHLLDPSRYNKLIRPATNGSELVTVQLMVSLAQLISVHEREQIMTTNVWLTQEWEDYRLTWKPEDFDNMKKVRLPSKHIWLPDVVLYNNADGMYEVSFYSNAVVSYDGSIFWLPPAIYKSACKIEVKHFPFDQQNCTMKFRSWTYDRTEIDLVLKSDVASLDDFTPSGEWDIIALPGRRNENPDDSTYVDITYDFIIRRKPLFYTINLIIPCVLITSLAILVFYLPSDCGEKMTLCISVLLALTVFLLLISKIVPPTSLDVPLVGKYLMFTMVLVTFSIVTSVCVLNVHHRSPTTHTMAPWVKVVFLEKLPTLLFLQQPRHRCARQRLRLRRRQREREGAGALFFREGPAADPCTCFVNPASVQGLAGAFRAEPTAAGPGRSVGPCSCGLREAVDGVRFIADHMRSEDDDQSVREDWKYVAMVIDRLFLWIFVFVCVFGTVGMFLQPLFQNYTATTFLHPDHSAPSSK

Regarding `Cc1cc[n+](CCCC/C=C\C=C/CCCC[n+]2ccc(C)cc2C)c(C)c1` [Example 7, cis-cis-N,N′-(dodeca-5,7-diene-1,12-diyl)-bis-(2,4-dimethyl-pyridinium)dibromide], the inhibition at 0.1 µM in assay [1] was determined as 6%; in assay [2], 1%.

On to `Cc1cc[n+](CCCC/C=C\C=C/CCCC[n+]2ccc(C)c(C)c2)cc1C` [Example 8, cis-cis-N,N′-(dodeca-5,7-diene-1,12-diyl)-bis-(3,4-dimethyl-pyridinium)dibromide], for which the inhibition at 0.1 µM in assay [1] and in assay [2] was 0% each time.

Consider `Cc1cc(C)c[n+](CCCC/C=C\C=C/CCCC[n+]2cc(C)cc(C)c2)c1` [Example 9, cis-cis-N,N′-(dodeca-5,7-diene-1,12-diyl)-bis-(3,5-dimethyl-pyridinium)dibromide], for which the inhibition at 0.1 µM in assay [1] and in assay [2] was 0% each time.

As for `CCc1ccc[n+](CCCCc2ccc(CCCC[n+]3cccc(CC)c3)cc2)c1` [Example 14, N,N′-[1,4-phenylenedi-(4-butanyl)]-bis-(3-ethylpyridinium)dibromide], the inhibition at 0.1 µM was found to be 4% in assay [1] and 2% in assay [2].

With `Cc1cc[n+](CCCCc2ccc(CCCC[n+]3ccc(C)cc3C)cc2)c(C)c1` [Example 18, N,N′-[1,4-phenylenedi-(4-butanyl)]-bis-(2,4-dimethylpyridinium)dibromide], the inhibition at 0.1 µM in assay [1] and in assay [2] was 0% throughout.

Regarding `Cc1cc[n+](CCCCc2ccc(CCCC[n+]3ccc(C)c(C)c3)cc2)cc1C` [Example 19, N,N′-[1,4-phenylenedi-(4-butanyl)]-bis-(3,4-dimethylpyridinium)dibromide], the inhibition at 0.1 µM in assay [1] and in assay [2] was 0% each time.

Consider `Cc1cc(C)c[n+](CCCCc2ccc(CCCC[n+]3cc(C)cc(C)c3)cc2)c1` [Example 20, N,N′-[1,4-phenylenedi-(4-butanyl)]-bis-(3,5-dimethylpyridinium)dibromide], for which the inhibition at 0.1 µM was found to be 0% in assay [1] and 1% in assay [2].

With `CCCCc1ccc[n+](CCCCCc2ccccc2CCCCC[n+]2cccc(CCCC)c2)c1` [Example 43, 1,2-bis-[5-(3-n-butyl-pyridinium)-pentyl]-benzene dibromide], the inhibition at 0.1 µM amounted to 5.5% in assay [1] and 0.8% in assay [2].

Regarding `CCCCc1ccc[n+](CCCC#Cc2cccc(C#CCCC[n+]3cccc(CCCC)c3)c2)c1` [Example 57, 1,3-bis-[5-(3-n-butyl-pyridinium)-pent-1-ynyl]-benzene dibromide], the inhibition at 0.1 µM is 8.7% in assay [1] and 3.5% in assay [2].

For `Cc1cc(C)c[n+](CCCc2ccc(-c3ccc(CCC[n+]4cc(C)cc(C)c4)cc3)cc2)c1` [Example 71, N,N′-[(1,1′-biphenyl)-4,4′-di-(3-propanyl)]-bis-(3,5-dimethylpyridinium)dibromide], the inhibition at 0.1 µM in assay [1] came out at 3.6%; in assay [2], 1.6%.

For the compound `Cc1cc[n+](CCCc2ccc(-c3ccc(CCC[n+]4ccc(C)c(C)c4)cc3)cc2)cc1C` [Example 72, N,N′-[(1,1′-biphenyl)-4,4′-di-(3-propanyl)]-bis-(3,4-dimethylpyridinium)dibromide], the inhibition at 0.1 µM in assay [1] was determined as 5.5%; in assay [2], 0%.

In the case of `Cc1cc[n+](CCCc2ccc(-c3ccc(CCC[n+]4ccc(C)cc4C)cc3)cc2)c(C)c1` [Example 73, N,N′-[(1,1′-biphenyl)-4,4′-di-(3-propanyl)]-bis-(2,4dimethylpyridinium)dibromide], the inhibition at 0.1 µM was 0.6% in assay [1] and 3% in assay [2].

For the compound `OCCCc1ccc[n+](CCCc2ccc(-c3ccc(CCC[n+]4cccc(CCCO)c4)cc3)cc2)c1` [Example 74, N,N′-[(1,1′-biphenyl)-4,4′-di-(3-propanyl)]-bis-[3-(3-hydroxy-propyl)-pyridinium]dibromide], the inhibition at 0.1 µM in assay [1] is 5.8%; in assay [2] it was 2%.

On to `c1cc2c([n+](CCCc3ccc(-c4ccc(CCC[n+]5cccc6c5CCCC6)cc4)cc3)c1)CCCC2` [Example 75, N,N′-[(1,1′-biphenyl)-4,4′-di-(3-propanyl)]-bis-[5,6,7,8-tetrahydroquinolinium]dibromide], for which the inhibition at 0.1 µM turned out to be 10% in assay [1] and 0.4% in assay [2].

`c1cc(-c2ccc(CCC[n+]3ccc4c(c3)CCCC4)cc2)ccc1CCC[n+]1ccc2c(c1)CCCC2` [Example 76, N,N′-[(1,1′-biphenyl)-4,4′-di-(3-propanyl)]-bis-[5,6,7,8-tetrahydroisoquinolinium]dibromide]: the figures for the inhibition at 0.1 µM in assay [1] and in assay [2] were 5.1% and 0%, respectively.

`Cc1cc[n+](CCCc2ccc(-c3ccc(CCC[n+]4ccc(C)cc4)cc3)cc2)cc1` [Example 77, N,N′-[(1,1′-biphenyl)-4,4′-di-(3-propanyl)]-bis-(4-methylpyridinium)dibromide]: the inhibition at 0.1 µM in assay [1] and in assay [2] was 0% in each case.

`Cc1cccc[n+]1CCCc1ccc(-c2ccc(CCC[n+]3ccccc3C)cc2)cc1` [Example 79, N,N′-[(1,1′-biphenyl)-4,4′-di-(3-propanyl)]-bis-(2-methylpyridinium)dibromide]: the inhibition at 0.1 µM in assay [1] and in assay [2] was 0% each time.

For `CN1CCC[C@H]1c1ccc[n+](CCOCCOCCOCC[n+]2cccc([C@@H]3CCCN3C)c2)c1` [Example 80, N,N′-{2,2′-[oxybis-(2,1-ethandiyloxy)]bis-ethyl}-bis-[3-(2′-S-1-methyl-pyrrolidin-2-yl)-pyridinium]dichloride], the inhibition at 0.1 µM in assay [1] amounted to 13%; in assay [2], 7.2%.

Take `Cc1cccc[n+]1CCOCCOCCOCC[n+]1ccccc1C` [Example 81, N,N′-{2,2′-[oxybis-(2,1-ethandiyloxy)]bis-ethyl}-bis(2-methylpyridinium)dichloride]: the values for the inhibition at 0.1 µM in assay [1] and in assay [2] were 17% and 8.5%, respectively.

Turning to `c1cc2c([n+](CCOCCOCCOCC[n+]3cccc4c3CCCC4)c1)CCCC2` [Example 84, N,N′-{2,2′-[oxybis-(2,1-ethandiyloxy)]bis-ethyl}-bis(5,6,7,8-tetrahydroquinolinium)dichloride], the inhibition at 0.1 µM in assay [1] worked out at 4.7%; in assay [2], 0%.

As for `c1c[n+](CCOCCOCCOCC[n+]2ccc3c(c2)CCCC3)cc2c1CCCC2` [Example 85, N,N′-{2,2′-[oxybis-(2,1-ethandiyloxy)]bis-ethyl}-bis(5,6,7,8-tetrahydroisoquinolinium)dichloride], the results for the inhibition at 0.1 µM in assay [1] and in assay [2] were 16% and 6%, respectively.

With `OCCCc1ccc[n+](CCOCCOCCOCC[n+]2cccc(CCCO)c2)c1` [Example 86, N,N′-{2,2′-[oxybis-(2,1-ethandiyloxy)]bis-ethyl}-bis-[3-(3-hydroxypropyl)-pyridinium]dichloride], the inhibition at 0.1 µM amounted to 8.5% in assay [1] and 8.2% in assay [2].

On to `OCc1ccc[n+](CCOCCOCCOCC[n+]2cccc(CO)c2)c1` [Example 87, N,N′-{2,2′-[oxybis-(2,1-ethandiyloxy)]bis-ethyl}-bis-(3-hydroxymethylpyridinium)dichloride], for which the inhibition at 0.1 µM in assay [1] came to 11%; in assay [2], 8.2%.

On to `Cc1cc[n+](CCOCCOCCOCC[n+]2ccc(C)cc2C)c(C)c1` [Example 88, N,N′-{2,2′-[oxybis-(2,1-ethandiyloxy)]bis-ethyl}-bis-(2,4-dimethylpyridinium)dichloride], for which the inhibition at 0.1 µM in assay [1] was 2.9%; in assay [2], 0%.

As to `Cc1cc[n+](CCOCCOCCOCC[n+]2ccc(C)c(C)c2)cc1C` [Example 89, N,N′-{2,2′-[oxybis-(2,1-ethandiyloxy)]bis-ethyl}-bis-(3,4-dimethylpyridinium)dichloride], the inhibition at 0.1 µM in assay [1] amounted to 14%; in assay [2] it was 13%.

A word on the inhibition: it is the relative decrease from the control value, in per cent.
